Molecules are shown by their SMILES.

The target of series [1] is T1, preformed α-Syn fibrils (Homo sapiens, UniProt P37840).
T1 construct: made in house; host or cells: Escherichia coli BL21
In words: CD spectroscopy of preformed α-Syn fibrils with analogs. Type of series: biochemical. To be noted: 0 h and 48 h of incubation. The procedure:
Further, the effect of curcumin analogs on the secondary structure of protein in preformed amyloid fibrils was studied by circular dichroism (CD) spectroscopy at 0 h and after 48 h of incubation. […] To further validate this, Fourier transform infrared spectroscopy (FTIR) was also performed with these samples, where spectra were recorded from 1500 to 1800 cm^−1.The region characteristic of protein secondary structures (1600–1700 cm^−1) was deconvoluted and the peaks were assigned according to published reports. FTIR spectra in the 1600–1700 cm^−1 region of preformed α-Syn fibrils in absence and presence of curcumin and its analogs are presented in Figs 4B and S4 and their percentage of secondary structures are shown in Table-S1.
20 μl of protein solution from 80 μM stock was diluted to 200 μl in 20 mM MES buffer, pH 6.0 with 0.01% NaN3 such that final protein concentration becomes 8 μM. The protein solution was then placed into a quartz cell (Hellma, Forest Hills, NY) of 0.1 cm path-length. Spectra were recorded using JASCO-810 instrument at 25 °C. Spectra acquisition was over the wavelength range of 198–260 nm with the scan speed of 100 nm/min, bandwidth 1 nm, data pitch 1 nm and response time of 1 sec. Processing of raw data was done by subtraction of buffer spectra and subsequently smoothing according to the manufacturer’s instructions.

The target in series [2] is T1, preformed α-Syn fibrils. In words: LDH cytotoxicity assay of preformed α-Syn fibrils incubated with curcumin analogs. In kind it is cell-based. To be noted: fibrils incubated with analog 48 h; SH-SY5Y cells. The method, then: (§1) The concentration of the fibrils was determined by subtraction of supernatant concentration from the original concentration of α-Syn kept for fibrillation.
(§2) The percent LDH release was plotted as difference in the absorbance value of 490 nm and 690 nm, considering 100% release for the TritonX-100 treated cells.

The target in series [3] is T2, α-Syn oligomers (Homo sapiens, UniProt P37840).
T2 construct: made in house; host or cells: Escherichia coli BL21
In words: TEM of α-Syn oligomers with C1/C6. In kind it is biochemical. The text has this: (§3) It has been shown that α-Syn mutants that form oligomers preferentially are more toxic and kill dopaminergic neurons in animal models as compared to fibril forming mutants. Therefore, compounds that effectively reduce the toxicity of oligomers could be beneficial for the treatment of PD. In the present study, we tested the effect of curcumin and its analogs on the toxicity, hydrophobic exposure and morphology of α-Syn oligomers isolated using size exclusion chromatography (SEC). The toxicity of α-Syn oligomers in presence and absence of curcumin/analogs were initially tested using MTT assay. […] To further validate the effectiveness of C6 to reduce the cytotoxicity of α-Syn oligomers, we also performed LDH cytotoxicity assay and Calcein-AM/Ethidium homodimer-1 staining. […] As previously it has been proposed that curcumin reduces the oligomers toxicity by altering their exposed hydrophobic surface, we also measured the hydrophobic surface exposure of preformed α-Syn oligomers incubated with curcumin and its analogs.
5 μl of various species of α-Syn (50 μM) incubated in absence and presence of curcumin and its analogs were spotted on carbon coated formavar grid and air dried for 10 min. The samples were then washed thrice with autoclaved MQ. The samples were then stained with 10 μl of uranyl formate 1% (w/v) and incubated in dark for 10 min. […]

Series [4] concerns the target T1, preformed α-Syn fibrils. In words: Calcein-AM/EthD-1 staining, preformed α-Syn fibrils with analogs. In kind it is cell-based. The note with it: SH-SY5Y cells. The method, then:
Previously it has been shown that curcumin decreases the toxicity of α-Syn amyloid fibrils by reducing the exposed hydrophobic surfaces. To delineate whether curcumin analogs can decrease the toxicity of preformed α-Syn fibrils, we performed cell viability assay. For this, 10-days incubated α-Syn solution was centrifuged (fibril formation was confirmed by electron microscopy (EM)) and the pelleted fibrils were then re-dissolved in same volume of 20 mM MES buffer (pH 6.0, 0.01% NaN3). The concentration of the fibrils was determined by subtraction of supernatant concentration from the original concentration of α-Syn kept for fibrillation. […] After incubation, we measured the effect of curcumin analogs on the toxicity of preformed α-Syn amyloid fibrils by MTT reduction assay on SH-SY5Y cells. […]
(§4) For this assay, SH-SY5Y cells were seeded in 96 well plate and incubated with identical concentrations of oligomers/fibrils (as used in MTT assay) in absence and presence of curcumin and its analogs for 36 h in 5% CO2 incubator at 37 °C. […] Calcein-AM/Ethidium homodimer-1 signal was then checked and imaged with an inverted fluorescence microscope (Leica DMi8). […] The free calcein emits strong fluorescence signal at ~535 nm, which could be easily observed in the green channel of a microscope. […]

Series [5] addresses T2, α-Syn oligomers. In words: LDH cytotoxicity assay of α-Syn oligomers with C1/C6. Type of series: cell-based. The note with it: oligomers incubated 30 minutes with compound; SH-SY5Y cells.
Excerpt: as §3
10 μM of α-Syn oligomers/fibrils incubated with and without 5 μM curcumin/analogs were added to SH-SY5Y cells (10,000 cells/well) in 96 well plate. […] The percent LDH release was plotted as difference in the absorbance value of 490 nm and 690 nm, considering 100% release for the TritonX-100 treated cells.

The target of series [6] is T3, α-Syn fibrils (Homo sapiens, UniProt P37840).
T3 construct: made in house; host or cells: Escherichia coli BL21
The experiment in a line: LDH cytotoxicity assay of α-Syn fibrils formed in presence of curcumin analogs. In kind it is cell-based. The note with it: SH-SY5Y cells.
Excerpt: as §2

Series [7] concerns the target T4, preformed α-Syn amyloid fibrils (Homo sapiens, UniProt P37840).
T4 construct: made in house; host or cells: Escherichia coli BL21
In words: MTT assay of preformed α-Syn fibrils incubated with curcumin analogs. Type of series: cell-based. To be noted: fibrils incubated with analog 48 h at 37 °C; SH-SY5Y cells. The procedure:
as §1
In general terms: Formazan colour is commonly taken as a measure of viable cells.

The target in series [8] is T3, α-Syn fibrils. The experiment in a line: MTT assay of α-Syn fibrils formed in presence of curcumin analogs. Type of series: cell-based. To be noted: 10 μM α-Syn fibril, 36 h, SH-SY5Y. The procedure:
Next, we measured the effect of α-Syn fibrils formed in presence and absence of curcumin analogs on the viability of SH-SY5Y neuronal cell line by MTT reduction assay. SH-SY5Y cells were incubated with 10 μM α-Syn fibril formed in presence of various curcumin analogs for 36 h. […] However, the extent of decrease in toxicity was different for different analogs. […] The calcein-AM/ethidium homodimer-1 staining also further corroborated the results obtained from MTT and LDH assay (Fig. 8C).

For series [9], the target named is T2, α-Syn oligomers. The experiment in a line: Calcein-AM/EthD-1 staining, α-Syn oligomers with C1/C6. In kind it is cell-based. The note with it: SH-SY5Y cells.
Excerpt: It has been shown that α-Syn mutants that form oligomers preferentially are more toxic and kill dopaminergic neurons in animal models as compared to fibril forming mutants. Therefore, compounds that effectively reduce the toxicity of oligomers could be beneficial for the treatment of PD. In the present study, we tested the effect of curcumin and its analogs on the toxicity, hydrophobic exposure and morphology of α-Syn oligomers isolated using size exclusion chromatography (SEC). The toxicity of α-Syn oligomers in presence and absence of curcumin/analogs were initially tested using MTT assay. […] As previously it has been proposed that curcumin reduces the oligomers toxicity by altering their exposed hydrophobic surface, we also measured the hydrophobic surface exposure of preformed α-Syn oligomers incubated with curcumin and its analogs.
as §4

For series [10], the target named is T5, preformed α-Syn oligomers (Homo sapiens, UniProt P37840).
T5 construct: made in house; host or cells: Escherichia coli BL21
In words: Nile red binding assay on α-Syn oligomers. Type of series: biochemical. The note with it: compared to α-Syn oligomers alone. The procedure:
Therefore, compounds that effectively reduce the toxicity of oligomers could be beneficial for the treatment of PD.
(§5) Stock solution of NR was prepared in DMSO (1 mM). […] Similar experimental protocol was used for NR binding to oligomers. FluoroMax-4 spectrofluorometer (HORIBA JobinYvon) was used with excitation and emission slit widths of 5 nm. The maximum NR fluorescence obtained at ~630 nm was used for plotting bar diagrams.

Series [11] concerns the target T2, α-Syn oligomers. The experiment in a line: MTT assay of α-Syn oligomers pre-incubated with curcumin analogs. In kind it is cell-based. To be noted: 10 μM α-Syn + 5 μM analog, 30 min RT; SH-SY5Y cells.
Excerpt: as §3
For isolation of α-Syn oligomers, we used previously established protocol. Briefly, lyophilized α-Syn powder was dissolved in MES buffer, pH 6.0, 0.01% NaN3, at a concentration of 50 mg/ml. The dissolved protein was then centrifuged at 14,000 × g for 30 min at 4 °C using a table top microcentrifuge (HITACHI, himac CT15RE, Japan). […]

Series [12] addresses T1, preformed α-Syn fibrils. The experiment in a line: Nile red binding assay on preformed α-Syn fibrils. Type of series: biochemical. The note with it: fibrils incubated with analog 48 h. The procedure:
as §5

Series [13] can be described thus: Stability of curcumin analogs by time-dependent intrinsic fluorescence. To be noted: 20 mM MES buffer pH 6.0, 0.01% NaN3, 37 °C. In kind it is physicochemical. The procedure:
1μl of this DMSO-stock solution was transferred to 2 ml microfuge tube and 1 ml of 20 mM MES buffer (pH 6.0, 0.01% NaN3) was added to it and mixed immediately by vortexing. These solutions were incubated at 37 °C and their respective fluorescence was taken at certain time intervals. The fluorescence was monitored by placing the 200 μl of the incubated solution in 0.1 cm path-length quartz cuvette (Hellma, Forest Hills, NY) and the spectra were acquired by using FluoroMax-4 spectrofluorometer (HORIBA JobinYvon) instrument with excitation and emission slit widths of 5 nm and 10 nm respectively. The fluorescence intensity maxima for each sample were plotted against time of incubation and fitted in exponential decay 1 in the Origin 8.0 software according to manufacture’s protocol (Fig. 2A).

Series [14] deals with T6, α-Syn (Homo sapiens, UniProt P37840).
T6 construct: made in house; host or cells: Escherichia coli BL21
The experiment in a line: TEM of α-Syn aggregates formed in presence of analogs. In kind it is biochemical. The method, then: Subsequently, we examined the effect of these analogs on α-Syn oligomerization by time dependent static light scattering experiment. […] After aggregation, TEM study was done to determine the effects of these analogs on the morphology of the resultant aggregates.
The samples were then washed thrice with autoclaved MQ. The samples were then stained with 10 μl of uranyl formate 1% (w/v) and incubated in dark for 10 min. The EM image of each sample was acquired at 120 kV with magnifications in the range of 26,000X and 43,000X using a transmission electron microscope (TECNAI12 D312 FEI, Netherlands).

Regarding `COc1cc(/C=C/C(=O)CC(=O)/C=C/c2ccc(O)c(OC)c2)ccc1O` [C1, Curcumin (diferuloylmethane), reference compound], in series [1], the “secondary structure of preformed α-Syn fibrils by CD” value was “remains unaltered”. For the same compound, the “effect on cell death by preformed α-Syn fibrils, LDH” value in series [2] is reported as “decrease in cell death”. In series [3], the “morphology of α-Syn oligomers (TEM)” value is given as “significantly altered their morphology”. For the same compound, the “Calcein-AM/EthD-1 staining with preformed α-Syn fibrils” value in [4] is recorded as “less nuclear staining by EthD-1”. The “LDH release with α-Syn oligomers” value in series [5] is given as “reduced LDH release”. Further, the “toxicity of α-Syn fibrils formed in presence of analog, LDH” value in series [6] is on record as “less toxicity to cells”. The “effect on toxicity of preformed α-Syn fibrils, MTT” value in [7] was “reduction in toxicity”. The “toxicity of α-Syn fibrils formed in presence of analog, MTT” value in series [8] is recorded as “less toxicity to cells”. Besides, in [9], the “ethidium homodimer staining with α-Syn oligomers” value is “less ethidium homodimer staining”.
On to `COc1ccc(/C=C/C(=O)CC(=O)/C=C/c2ccc(OC)c(OC)c2)cc1OC` [C2], for which, in series [2], the “effect on cell death by preformed α-Syn fibrils, LDH” value is recorded as “decrease in cell death”. The “Nile red fluorescence of α-Syn oligomers (exposed hydrophobic surface)” value in [10] was “increase in NR fluorescence”. Besides, the “effect on toxicity of α-Syn oligomers, MTT” value in series [11] is recorded as “slight reduction in the toxicity”. Besides, the “Nile red fluorescence of preformed α-Syn fibrils (exposed hydrophobic surface)” value in series [12] is given as “less NR fluorescence for fibrils as compared to curcumin”. Besides, in series [13], the “relative stability compared with curcumin (slope of normalized fluorescence versus time)” value is “less stable than curcumin”. For the same compound, the “average fibril thickness of fibrils formed in presence of analog” value in series [14] was “more in comparison to fibrils formed in presence of other analogs”.

The values above are taken from article PMC4919791, “Effect of curcumin analogs onα-synuclein aggregation and cytotoxicity” (Scientific Reports, 2016).
